Measured values published in patent publication US20260224486A1, “DIANHYDROHEXITOL BASED IONIZABLE LIPIDS FOR NUCLEIC ACID DELIVERY” (SANOFI PASTEUR INC., priority 2023, published 2026).

How the values were obtained:
[1] = Lipid nanoparticle size and polydispersity index by dynamic light scattering (Malvern Zetasizer); type: physicochemical; details: hEPO mRNA LNP, Process A, Cationic Lipid:DMG-PEG2000:Cholesterol:DOPE 40:1.5:28.5:30 mol %, N/P 4
From the text: The lipid nanoparticles in the examples of the present invention were formulated using Process A of WO 2018/089801 (see, e.g., Example 1 and FIG. 1 of WO 2018/089801). Process A (“A”) relates to a conventional method of encapsulating mRNA by mixing mRNA with a mixture of lipids, without first pre-forming the lipids into lipid nanoparticles. In an exemplary process, an ethanolic solution of a mixture of lipids (cationic lipid, phosphatidylethanolamine, cholesterol, and polyethylene glycol-lipid) at a fixed lipid to mRNA ratio were combined with an aqueous buffered solution of target mRNA at an acidic pH under controlled conditions to yield a suspension of uniform LNPs. After ultrafiltration and diafiltration into a suitable diluent system, the resulting nanoparticle suspensions were diluted to final concentration, filtered, and stored frozen at −80° C. until use.
(§1) Lipid nanoparticle formulations of Table 1 were prepared by Process A. All of the lipid nanoparticle formulations comprised hEPO mRNA and the different lipids (Cationic Lipid: DMG-PEG2000: Cholesterol: DOPE) in mol % ratios of 40:1.5:28.5:30 (Cationic Lipid: DMG-PEG2000: Cholesterol: DOPE).
The Polydispersity Index (Pdl) of lipid nanoparticles can be determined by diluting the formulation in 10% trehalose at about 0.1 mg/ml mRNA concentration and then measuring the size on Malvern zetasizer. The lipid nanoparticle size can be obtained with Malvern Zetasizer Nano-ZS.
Dynamic light scattering (DLS) measurements were performed using a Malvern Instruments Zetasizer with a backscattering detector angle of 173° and a 4-mW, 633-nm He—Ne laser (Worcestershire, UK). The samples were analyzed by diluting in 10% Trehalose and measuring the size and Poly dispersity Index (PDI) in an optical grade polystyrene cuvette.

[2] = test system: BALB/cJ mice; test: Delivery of hEPO mRNA by intramuscular administration of LNPs; serum hEPO by ELISA; type: in vivo, Mouse; details: for hEPO 24 Hr (ng/ml) Mean: mouse serum 24 hours post single IM injection of 0.1 μg hEPO mRNA LNP
Summary of the method: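 Female BALB/cJ mice, 6-8 weeks, given a single IM injection of 0.1 μg hEPO mRNA LNPs into right gastrocnemius under light isoflurane. Serum taken at 6 and 24 h post dose and terminally by cardiac puncture; hEPO measured by ELISA ("shaker" protocol), samples diluted 1:40 to 1:100.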

[3] = mRNA encapsulation efficiency of lipid nanoparticles (RiboGreen assay); type: physicochemical; details: hEPO mRNA LNP, Process A, Cationic Lipid:DMG-PEG2000:Cholesterol:DOPE 40:1.5:28.5:30 mol %, N/P 4
From the text: In embodiments, the lipid nanoparticle encapsulates a nucleic acid, optionally an mRNA encoding a peptide or protein. In embodiments, the lipid nanoparticle encapsulates an mRNA encoding a peptide or protein, optionally for use in a vaccine. In embodiments, the peptide is an antigen. As used herein, the phrase “encapsulation percentage” refers to the fraction of therapeutic agent (e.g. mRNA) that is effectively encapsulated within a liposomal-based vehicle (e.g. a lipid nanoparticle) relative to the initial fraction of therapeutic agent present in the lipid phase. In embodiments, the lipid nanoparticles have an encapsulation percentage for mRNA of at least 50%. In embodiments, the lipid nanoparticles have an encapsulation percentage for mRNA of at least 55%. In embodiments, the lipid nanoparticles have an encapsulation percentage for mRNA of at least 60%. In embodiments, the lipid nanoparticles have an encapsulation percentage for mRNA of at least 65%. In embodiments, the lipid nanoparticles have an encapsulation percentage for mRNA of at least 70%. In embodiments, the lipid nanoparticles have an encapsulation percentage for mRNA of at least 75%. In embodiments, the lipid nanoparticles have an encapsulation percentage for mRNA of at least 80%. In embodiments, the lipid nanoparticles have an encapsulation percentage for mRNA of at least 85%. In embodiments, the lipid nanoparticles have an encapsulation percentage for mRNA of at least 90%. In embodiments, the lipid nanoparticles have an encapsulation percentage for mRNA of at least 95%. In embodiments, the encapsulation percentage is calculated by performing the Ribogreen assay (Invitrogen) with and without the presence of 0.1% Triton-X 100.
as §1
The RiboGreen Assay is a fluorescence-based method for the determination of mRNA concentration (Total and Free) and % encapsulation using Quant-iT™ RiboGreen® RNA reagent in mRNA containing lipid nanoparticles.
• To each of the standards (Blank, mRNA-1, mRNA-2. mRNA-3, mRNA-4, mRNA-5) and Samples (free mRNA and total mRNA), add 1.0 mL of 200-fold Ribogreen Reagent Solution and gently mix by inversion. This is a 2× Dilution. • Add 200 μL of each standard and sample in triplicate using the reverse pipetting technique in a 96-well Costar Black with Clear Background Plate. Ensure no bubbles are present in the plate before the fluorescence reading. • Read the fluorescence signal using the below instrument parameters: • Read Type: Fluorescence, Bottom Read • Excitation: 485 nm; Cut-off: 515 nm; Emission: 530 nm • Plate Type: 96-well Costar Black with Clear Background
The average fluorescence from each calibration standard is plotted against the concentration to generate a linear calibration curve using the MS Excel software. The coefficient of determination (R^2) of calibration curve must be R^2>0.99.
[formula] • Where, • Y=average fluorescence value • m: slope • x: concentration (pg/mL) • c: y-intercept • Using the linear equation, calculate the concentration of free and total mRNA concentration in the test sample by replacing the y value in the equation with the average fluorescence value of each respective sample • Once the concentration is determined, the actual concentration in the sample can be back-calculated by multiplying the concentration in the test sample with the dilution factor (DF) as follows:
[formula] [formula] • Concentration of encapsulated mRNA can be determined by subtracting the concentration of free mRNA from the total mRNA. • % Encapsulation can then be calculated by taking the ratio of encapsulated mRNA over total mRNA and multiplying the result with 100.

[4] = test system: A/Tasmania/503/2020 (H3N2) virus; test: Influenza titer: HAI assay on sera of mice immunized IM with Modified Tasmania H3 mRNA-lipid nanoparticles; details: Balb/c mice, 0.4 ug per mouse Modified Tasmania H3 mRNA-LNP IM on day 0 and day 21
[5] = Table 3, isomannide-derived lipids, mouse serum 6 hours post single IM injection of 0.1 μg hEPO mRNA LNP
[6] = Table 2, isosorbide-derived lipids, mouse serum 6 hours post single IM injection of 0.1 μg hEPO mRNA LNP
[7] = Table 4, further lipids, mouse serum 6 hours post IM injection of hEPO mRNA LNP as in example 3

With `CCCCCCCCCCC(O)CN(CCCC(=O)O[C@H]1CO[C@H]2[C@@H]1OC[C@H]2OC(=O)CCCN(CC(O)CCCCCCCCCC)CC(O)CCCCCCCCCC)CC(O)CCCCCCCCCC` (stereo in doubt) [Compound 3] the “Polydispersity Index (PDI)” value [1] was 0.11, the “Size (nm)” value [1] was 95 nm and the “hEPO 6 Hr (ng/mL) Mean” value [2, 5] was 37.4 ng/mL. The “hEPO 24 Hr (ng/ml) Mean” value ([2]; Table 3, isomannide-derived lipids) was 18.9 ng/mL, the “Encapsulation efficiency (EE) %” value [3] was 86% and the “HAI GMT” value [4] was 320.
For `CCCCCCCCCCC(O)CN(CCCC(=O)O[C@H]1CO[C@H]2[C@@H]1OC[C@H]2OC(=O)CCCN(CC(O)CCCCCCCCCC)CC(O)CCCCCCCCCC)CC(O)CCCCCCCCCC` (stereo partly drawn) [Compound 24], the “Polydispersity Index (PDI)” value [1] was 0.11, the “Size (nm)” value [1] was 88 nm and the “hEPO 6 Hr (ng/ml) Mean” value [2, 6] was 30.2 ng/mL. The “hEPO 24 Hr (ng/ml) Mean” value ([2]; Table 2, isosorbide-derived lipids) was 19.4 ng/mL, the “Encapsulation efficiency (EE) %” value [3] was 83% and the “HAI GMT” value [4] was 190.
With `CCCCCCCCCCCCC(O)CN(CCCCC(=O)O[C@H]1CO[C@H]2[C@@H]1OC[C@H]2OC(=O)CCCCN(CC(O)CCCCCCCCCCCC)CC(O)CCCCCCCCCCCC)CC(O)CCCCCCCCCCCC` (stereo partly drawn) [Compound 28] the “Polydispersity Index (PDI)” value [1] was 0.103, the “Size (nm)” value [1] was 91 nm and the “hEPO 6 Hr (ng/ml) Mean” value [2, 6] was 40.2 ng/mL. For the same molecule, the “Encapsulation efficiency (EE) %” value [3] was 94%.
In the case of `CCCCCCCCC(O)CN(CCCC(=O)N[C@H]1CO[C@H]2[C@@H]1OC[C@@H]2NC(=O)CCCN(CC(O)CCCCCCCC)CC(O)CCCCCCCC)CC(O)CCCCCCCC` (stereo partly drawn) [Compound 51], the “Polydispersity Index (PDI)” value [1] is reported as 0.12, the “Size (nm)” value [1] is reported as 71 nm and the “hEPO 6 Hr (ng/ml) Mean” value [2, 7] is reported as 47.6 ng/mL. For the same molecule, the “Encapsulation efficiency (EE) %” value [3] was 81%.
In the case of `CCCCCCCCCCC(O)CN(CCCCOC(=O)O[C@@H]1CO[C@H]2[C@@H]1OC[C@H]2OC(=O)OCCCCN(CC(O)CCCCCCCCCC)CC(O)CCCCCCCCCC)CC(O)CCCCCCCCCC` (stereo partly drawn) [Compound 38], the “Polydispersity Index (PDI)” value [1] is reported as 0.12, the “Size (nm)” value [1] is reported as 69 nm and the “hEPO 6 Hr (ng/mL) Mean” value [2, 5] is reported as 22.6 ng/mL. The “Encapsulation efficiency (EE) %” value [3] was 72%.
In the case of `CCCCCCCCCCCCC(O)CN(CCCC(=O)N[C@H]1CO[C@H]2[C@@H]1OC[C@@H]2NC(=O)CCCN(CC(O)CCCCCCCCCCCC)CC(O)CCCCCCCCCCCC)CC(O)CCCCCCCCCCCC` (stereo partly drawn) [Compound 55], the “Polydispersity Index (PDI)” value [1] is reported as 0.15, the “Size (nm)” value [1] is reported as 101 nm and the “hEPO 6 Hr (ng/ml) Mean” value [2, 7] is reported as 30.9 ng/mL. The “Encapsulation efficiency (EE) %” value [3] was 99%.
For `CCCCCCCCC(O)CN(CCCCC(=O)O[C@H]1CO[C@H]2[C@@H]1OC[C@H]2OC(=O)CCCCN(CC(O)CCCCCCCC)CC(O)CCCCCCCC)CC(O)CCCCCCCC` (stereo partly drawn) [Compound 21], the “Polydispersity Index (PDI)” value [1] was 0.139, the “Size (nm)” value [1] was 78 nm and the “hEPO 6 Hr (ng/ml) Mean” value [2, 6] was 31.6 ng/mL. The “Encapsulation efficiency (EE) %” value [3] was 96%.
In the case of `CCCCCCCCCCCOC(=O)CCCC(O)CN(CCCC(=O)O[C@@H]1CO[C@H]2[C@@H]1OC[C@H]2OC(=O)CCCN(CC(O)CCCCCC(=O)OC(CCCCCCCC)CCCCCCCC)CC(O)CCCC(=O)OCCCCCCCCCCC)CC(O)CCCCCC(=O)OC(CCCCCCCC)CCCCCCCC` (stereo partly drawn) [Compound 11], the “Polydispersity Index (PDI)” value [1] is reported as 0.1, the “Size (nm)” value [1] is reported as 120 nm and the “hEPO 6 Hr (ng/mL) Mean” value [2, 5] is reported as 36 ng/mL. The “Encapsulation efficiency (EE) %” value [3] was 94%.
With `CCCCCCCCCCCCCCC(O)CN(CCCC(=O)O[C@@H]1CO[C@H]2[C@@H]1OC[C@H]2OC(=O)CCCN(CC(O)CCCCCCCCCCCCCC)CC(O)CCCCCCCCCCCCCC)CC(O)CCCCCCCCCCCCCC` (stereo partly drawn) [Compound 6] the “Polydispersity Index (PDI)” value [1] was 0.16, the “Size (nm)” value [1] was 114 nm and the “hEPO 6 Hr (ng/mL) Mean” value [2, 5] was 40.9 ng/mL. For the same molecule, the “Encapsulation efficiency (EE) %” value [3] was 99%.
With `CCCCCCCCCCCOC(=O)CCCC(O)CN(CCCC(=O)O[C@@H]1CO[C@H]2[C@@H]1OC[C@@H]2OC(=O)CCCN(CC(O)CCCCCCCCCC)CC(O)CCCCCCCCCC)CC(O)CCCCCC(=O)OC(CCCCCCCC)CCCCCCCC` (stereo in doubt) [Compound 32] the “Polydispersity Index (PDI)” value [1] was 0.2, the “Size (nm)” value [1] was 94 nm and the “hEPO 6 Hr (ng/ml) Mean” value [2, 6] was 33.2 ng/mL. For the same molecule, the “Encapsulation efficiency (EE) %” value [3] was 94%.
In the case of `CCCCCC/C=C\COC(=O)CCCCCC(O)CN(CCCC(=O)O[C@@H]1CO[C@H]2[C@@H]1OC[C@H]2OC(=O)CCCN(CC(O)CCCCCCCCCC)CC(O)CCCCCCCCCC)CC(O)CCCCCC(=O)OC/C=C\CCCCCC` (stereo partly drawn) [Compound 15], the “Polydispersity Index (PDI)” value [1] is reported as 0.11, the “Size (nm)” value [1] is reported as 88 nm and the “hEPO 6 Hr (ng/mL) Mean” value [2, 5] is reported as 22.8 ng/mL. For the same molecule, the “Encapsulation efficiency (EE) %” value [3] was 91%.
